Results as given in publication PMC10009108, “Design, synthesis and screening of indole acetic acid-based tri-azo moieties as antioxidants, anti-microbial and cytotoxic agents” (Frontiers in Pharmacology, 2023).
Converted amounts (≈) assume the structure as drawn.

Key:
[1] = Total reducing power (TRP assay); settings: mean ± SD
Method: The process used for TRP was illustrated by ([Bibi et al., 2011]). The […] method is used for 100 μL of each solution, 200 μL Phosphate buffer (0.2 M, pH 6.6), and 250 μL of potassium ferricyanide was mixed and incubated at 50°C for 20 min, to this solution, 10 percent (200 μL) trichloroacetic acid was added, centrifugation was done at 3,000 rpm for 10 min, the supernatant was collected, added with FeCl3 (50 μL), and shifted to the microplate. Absorbance was recorded at 700 nm. Ascorbic acid (100 μg/mL DMSO) is the +ve control for the test, and dimethyl sulfoxide (DMSO) is the blank.
The primary mechanism of TRP assay is based on the compound’s capacity to reduce free radicals, which are generated during the procedure. i.e., Fe^3+ is reduced to Fe^2+ ([Lee et al., 2015]). Various factors determine the antioxidant potential of the compound; a few to explain include the chemical attributes, nature of antioxidant moieties, conditions and mechanism of the reaction, which accounts for the reason for a compound’s activity in one assay and none-to-less response in the other ([Francenia Santos-Sanchez et al., 2019]). However, compounds with hydroxyl and methoxy groups form the bases for potential candidates as an antioxidant ([Rakesh et al., 2015]).

[2] = system: Pseudomonas aeruginosa (ATCC-15442); assay: Antibacterial assay, micro broth dilution; type: cell-based; settings: ATCC15442
Text: (§1) The micro broth dilution method was used to establish the antibacterial potential of test samples against Staphylococcus aureus (ATCC-6538), Bacillus subtilis (ATCC-6633), Escherichia coli (ATCC-25922), Klebsiella pneumoniae (ATCC-1705), and Pseudomonas aeruginosa (ATCC-15442) and for the resistant strains of MRSA Staphylococcus aureus, P. aeruginosa and Escherichia coli. The procedure used is described by ([Sarker et al., 2007]). Bacterial inoculum was formed under aseptic conditions keeping the density near 5 × 10^4 CFU/mL in pre-autoclaved nutrient broth. Test samples of an aliquot of 5 µL were shifted to labeled wells of 96 well plates, and after that addition of 195 µL of nutrient broth; was accomplished. After that, a 2-fold serial dilution of every sample was arranged to get final concentrations of 12.5 μg/mL. Then, with the help of a micropipette, 195 µL of bacterial culture of respective strains was poured into each well; further advancement was incubating of plates for 30 min at the temperature of 37°C. […] Incubation of plates was again carried out at 37°C for 1 day, absorbance was noted, and net change in turbidity was the difference between two values of absorbance.
(§2) Schiff base tri-azo compounds were investigated for antibacterial potential. […] 6.25 μg/mL for 5b and 5g, and the least, Table 4 3.12 μg/mL was for 5f. […] Substituents with electron-withdrawing attributes, e.g., -NO2, -Cl, -OH on the aromatic ring, assert a great impact on the antibacterial activity of synthetic compounds. It is also observed that an increase in the number of -OH groups tend to enhance the activity ([Hosamani and Shingalapur, 2011]). Due to the difference in cell-wall composition of Gram + ve and -ve bacteria, different compounds show different features towards the same micro-organism ([Goszczyn’ska et al., 2015]).

[3] = Total antioxidant capacity (TAC assay); settings: rank among the synthetic compounds
Method: This evaluation was based on the protocol by ([Bibi et al., 2011]). This mechanism’s key point is reducing Mo (VI) to Mo (V). A solution consisting of 4 mM Ammonium molybdate, 28 mM SodiumPhosphate, and 0.6 M Sulphuric acid is utilized, which forms Phosphate Molybdenum Complex which is green in color and gives absorption = […]. […] of the sample is added to […] of reagent, which is incubated at 95°C for one and a half hours and cooled to 25°C.
The antioxidant potential of test compounds was estimated by TAC &TRP assays. The spectrophotometric method was used to analyze the formation of the green-colored phosphomolibdenum compound. […] The findings are depicted in Figure 6.

[4] = system: Escherichia coli (ATCC-25922); assay: Antibacterial assay, micro broth dilution; type: cell-based; settings: ATCC25922, read-out: E. coli MIC
Text: as §1, §2

[5] = system: Staphylococcus aureus (ATCC-6538); assay: Antibacterial assay, micro broth dilution; type: cell-based; settings: ATCC6538, read-out: S. aureus MIC
Text: as §1, §2

Row | MIC [2] [µg/mL] | MIC [4] [µg/mL] | MIC [5] [µg/mL] | Compound | TRP [1] [µg AAE/mg] | activity in the TAC assay (in words) [3]
1 | 12.5 (≈ 35.8 µM) |  |  | Oc1cccc(C=Nn2c(Cc3c[nH]c4ccccc34)n[nH]c2=S)c1 [Compound 5a] | 592.26 ± 0.007 | 
2 |  |  | 25 (≈ 68 µM) | S=c1[nH]nc(Cc2c[nH]c3ccccc23)n1N=Cc1cccc(Cl)c1 [Compound 5f] |  | 

Second part, the compound before the results:

Row | Compound | MIC [2] [µg/mL] | MIC [4] [µg/mL] | MIC [5] [µg/mL] | TRP [1] [µg AAE/mg] | activity in the TAC assay (in words) [3]
3 | COc1cccc(C=Nn2c(Cc3c[nH]c4ccccc34)n[nH]c2=S)c1 [Compound 5b] | 12.5 (≈ 34.4 µM) |  |  | 706.42 ± 0.004 | maximum activity
4 | S=c1[nH]nc(Cc2c[nH]c3ccccc23)n1N=Cc1ccc(Cl)cc1 [Compound 5c] |  | 25 (≈ 68 µM) |  |  | 
5 | O=[N+]([O-])c1ccc(C=Nn2c(Cc3c[nH]c4ccccc34)n[nH]c2=S)cc1 [Compound 5d] |  | 25 (≈ 66.1 µM) |  |  | 
6 | Oc1ccc(C=Nn2c(Cc3c[nH]c4ccccc34)n[nH]c2=S)cc1 [Compound 5e] | 3.12 (≈ 8.93 µM) | 25 (≈ 71.5 µM) |  | 619.18 ± 0.010 | 
7 | COc1cc(C=Nn2c(Cc3c[nH]c4ccccc34)n[nH]c2=S)cc(OC)c1OC [Compound 5g] |  |  | 25 (≈ 59 µM) | 642.67 ± 0.001 | 
